# Values quoted from earlier work, collected in patent publication US20080166423A1, “Combination Medication for Treating the Effects of Stomach Acid Reduction Medication on Bone Integrity” (priority 2007, published 2008).
# Settings: per day
smiles,measurement,value
CC(=O)Nc1ccc(O)cc1 [Acetaminophen],daily dosage with known liver toxicity,> 4000 mg
